Data on 17 molecules can be found in US20260355196A1, “INHIBITORS AND DEGRADERS OF PIP4K PROTEIN” (Larkspur Biosciences, Inc., priority 2023, published 2026).

The first assay addresses T1, PIP4K2C (Homo sapiens, UniProt Q8TBX8).
T1 sequence (Q8TBX8 1-421): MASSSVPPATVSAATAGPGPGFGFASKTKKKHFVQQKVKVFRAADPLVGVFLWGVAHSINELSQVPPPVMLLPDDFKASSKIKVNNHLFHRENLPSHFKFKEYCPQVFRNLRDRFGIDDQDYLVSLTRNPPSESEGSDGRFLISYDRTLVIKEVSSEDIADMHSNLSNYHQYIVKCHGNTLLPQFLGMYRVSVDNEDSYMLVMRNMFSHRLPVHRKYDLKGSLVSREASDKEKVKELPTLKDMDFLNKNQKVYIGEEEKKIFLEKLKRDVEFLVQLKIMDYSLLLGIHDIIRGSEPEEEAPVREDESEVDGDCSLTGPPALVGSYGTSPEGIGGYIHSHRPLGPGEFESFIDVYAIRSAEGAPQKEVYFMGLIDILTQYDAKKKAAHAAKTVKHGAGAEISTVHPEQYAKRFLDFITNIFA
Nature of the assay: HiBiT PIP4K2C degradation assay in MOLT-4 cells (endogenous PIP4K2C C-terminally tagged with HiBiT). Type of assay: cell-based. Further details: untagged in primary human PBMCs and monocyte-derived dendritic cells. Conditions: 6 hours of incubation time, rather than 24 hours; MOLT-4, top concentration 10 micromolar; read-out: HiBIT-degradation MOLT4 PIP4k2C DC50 (6 hours, marked *). The method in brief:
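Cells are plated onto compound dilutions (10 points, 3-fold, top 10 micromolar) and incubated 24 or 6 hours at 37 C. Lytic HiBiT detection then quantifies tagged endogenous PIP4K2C in MOLT-4, and a Hill fit yields DC50.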
On the technique in general: With HiBiT, luminescence reflects the tagged protein that the partner subunit can reach.
By DC50 is commonly meant the midpoint of the concentration-degradation curve. Turning to `O=C1CCC(Nc2ccc(C3CCN([C@H]4CC[C@H](C(=O)N[C@H]5CC[C@H](Nc6ncc(F)c(-c7ccnc(-n8ccccc8=O)c7)n6)CC5)CC4)CC3)c(F)c2)C(=O)N1` (stereo partly drawn) [Compound 573, trans-(1r,4R)-4-(4-(4-((2,6-dioxopiperidin-3-yl)amino)-2-fluorophenyl)piperidin-1-yl)-N-((1r,4R)-4-((5-fluoro-4-(2-oxo-2H-[1,2′-bipyridin]-4′-yl)pyrimidin-2-yl)amino)cyclohexyl)cyclohexane-1-carboxamide], the DC50 was less than 500 nM.

As for `O=C1CCC(Nc2ccc(C3CCN(CC4CCN(C(=O)[C@H]5CC[C@H](Nc6ncc(F)c(-c7cccc(-c8ccc[nH]c8=O)c7)n6)CC5)CC4)CC3)c(F)c2)C(=O)N1` (stereo partly drawn) [Compound 384, trans-3-((3-fluoro-4-(1-((1-(4-((5-fluoro-4-(3-(2-oxo-1,2-dihydropyridin-3-yl)phenyl)pyrimidin-2-yl)amino)cyclohexane-1-carbonyl)piperidin-4-yl)methyl)piperidin-4-yl)phenyl)amino)piperidine-2,6-dione], the DC50 is less than 500 nM.

For `O=C1CCC(Nc2ccc(N3CCN([C@H]4CC[C@H](C(=O)N[C@H]5CC[C@H](Nc6ncc(F)c(-c7cccc(N8CCOCC8=O)c7)n6)CC5)CC4)CC3)c(F)c2)C(=O)N1` (stereo partly drawn) [Compound 536, trans-4-(4-(4-((2,6-dioxopiperidin-3-yl)amino)-2-fluorophenyl)piperazin-1-yl)-N-(trans-4-((5-fluoro-4-(3-(3-oxomorpholino)phenyl)pyrimidin-2-yl)amino)cyclohexyl)cyclohexane-1-carboxamide], the half-maximal degradation concentration (DC50) was less than 500 nM.

In the case of `O=C1CCC(Nc2ccc(N3CCN(C4CCN(C(=O)O[C@H]5CC[C@H](Nc6ncc(F)c(-c7cccc(N8CCOCC8=O)c7)n6)CC5)CC4)CC3)c(F)c2)C(=O)N1` (stereo partly drawn) [Compound 688, trans-4-((5-fluoro-4-(3-(3-oxomorpholino)phenyl)pyrimidin-2-yl)amino)cyclohexyl 4-(4-(4-((2,6-dioxopiperidin-3-yl)amino)-2-fluorophenyl)piperazin-1-yl)piperidine-1-carboxylate], the DC50 was less than 500 nM.

`O=C1CCC(Nc2ccc(C3CCN(C[C@H]4CC[C@H](CNC(=O)[C@H]5CC[C@H](Nc6ncc(F)c(-c7cccc(N8CCOCC8=O)c7)n6)CC5)CC4)CC3)c(F)c2)C(=O)N1` (stereo partly drawn) [Compound 589, trans-(1r,4R)—N-(((1r,4R)-4-((4-(4-((2,6-dioxopiperidin-3-yl)amino)-2-fluorophenyl)piperidin-1-yl)methyl)cyclohexyl)methyl)-4-((5-fluoro-4-(3-(3-oxomorpholino)phenyl)pyrimidin-2-yl)amino)cyclohexane-1-carboxamide]: the DC50 is less than 500 nM.

For the molecule `O=C1CC[C@@H](Nc2ccc(N3CCN([C@H]4CC[C@H](C(=O)N[C@H]5CC[C@H](Nc6ncc(F)c(-c7cccc(-c8ccc[nH]c8=O)c7)n6)CC5)CC4)CC3)c(F)c2)C(=O)N1` [Compound 544, trans-4-(4-(4-(((R)-2,6-dioxopiperidin-3-yl)amino)-2-fluorophenyl)piperazin-1-yl)-N-((trans)-4-((5-fluoro-4-(3-(2-oxo-1,2-dihydropyridin-3-yl)phenyl)pyrimidin-2-yl)amino)cyclohexyl)cyclohexane-1-carboxamide], the DC50 was less than 500 nM.

In the case of `O=C1CCC(Nc2ccc(C3CCN(C4CCN(C(=O)O[C@H]5CC[C@H](Nc6ncc(F)c(-c7cccc(N8CCCCC8=O)c7)n6)CC5)CC4)CC3)c(F)c2)C(=O)N1` (stereo partly drawn) [Compound 678, trans-4-((5-fluoro-4-(3-(2-oxopiperidin-1-yl)phenyl)pyrimidin-2-yl)amino)cyclohexyl 4-(4-((2,6-dioxopiperidin-3-yl)amino)-2-fluorophenyl)-[1,4′-bipiperidine]-1′-carboxylate], the DC50 is less than 500 nM.

For `O=C1CCC(Nc2ccc(N3CCC(CN4CCN(C(=O)[C@H]5CC[C@H](Nc6ncc(F)c(-c7cccc(N8CCCOC8=O)c7)n6)CC5)CC4)CC3)c(F)c2)C(=O)N1` (stereo partly drawn) [Compound 428, trans-3-((3-fluoro-4-(4-((4-(4-((5-fluoro-4-(3-(2-oxo-1,3-oxazinan-3-yl)phenyl)pyrimidin-2-yl)amino)cyclohexane-1-carbonyl)piperazin-1-yl)methyl)piperidin-1-yl)phenyl)amino)piperidine-2,6-dione], the DC50 was less than 500 nM.

For the molecule `O=C1CCC(Nc2ccc(C3CCN(C4CCC(C(=O)N[C@H]5CC[C@H](Nc6ncc(F)c(-c7cccc(-n8ccccc8=O)c7)n6)CC5)CC4F)CC3)c(F)c2)C(=O)N1` (stereo partly drawn) [Compound 694, (1R,3S,4R)-4-(4-(4-((2,6-dioxopiperidin-3-yl)amino)-2-fluorophenyl)piperidin-1-yl)-3-fluoro-N-((trans)-4-((5-fluoro-4-(3-(2-oxopyridin-1 (2H)-yl)phenyl)pyrimidin-2-yl)amino)cyclohexyl)cyclohexane-1-carboxamide], the DC50 was less than 500 nM.

As for `O=C1CCC(Nc2ccc(N3CCN(CC4(O)CCN(C(=O)[C@H]5CC[C@H](Nc6ncc(F)c(-c7cccc(N8CCCCC8)c7)n6)CC5)CC4)CC3)c(F)c2)C(=O)N1` (stereo partly drawn) [Compound 493, trans-3-[3-fluoro-4-[4-[[1-[4-[[5-fluoro-4-[3-(1-piperidyl)phenyl]pyrimidin-2-yl]amino]cyclohexanecarbonyl]-4-hydroxy-4-piperidyl]methyl]piperazin-1-yl]anilino]piperidine-2,6-dione], the DC50 is less than 500 nM.

Regarding `O=C1CCC(Nc2ccc(C3CCN([C@H]4CC[C@H](C(=O)N[C@H]5CC[C@H](Nc6ncc(F)c(-c7cccc(N8CCOCC8=O)n7)n6)CC5)CC4)CC3)c(F)c2)C(=O)N1` (stereo partly drawn) [Compound 538, trans-(1r,4R)-4-(4-(4-((2,6-dioxopiperidin-3-yl)amino)-2-fluorophenyl)piperidin-1-yl)-N-((1r,4R)-4-((5-fluoro-4-(6-(3-oxomorpholino)pyridin-2-yl)pyrimidin-2-yl)amino)cyclohexyl)cyclohexane-1-carboxamide], the DC50 is more than 5000 nM.

In the case of `O=C1CCC(Nc2ccc(C3CCN(C[C@H]4CC[C@H](COC(=O)N5CCC(Nc6ncc(F)c(-c7cccc(-n8ccccc8=O)c7)n6)CC5)CC4)CC3)c(F)c2)C(=O)N1` (stereo partly drawn) [Compound 644, trans-(4-((4-(4-((2,6-dioxopiperidin-3-yl)amino)-2-fluorophenyl)piperidin-1-yl)methyl)cyclohexyl)methyl 4-((5-fluoro-4-(3-(2-oxopyridin-1 (2H)-yl)phenyl)pyrimidin-2-yl)amino)piperidine-1-carboxylate], the DC50 was less than 500 nM.

For `O=C1CCC(Nc2ccc(N3CCN([C@H]4CC[C@H](C(=O)N[C@H]5CC[C@H](Nc6ncc(F)c(-c7cccc(N8CCOCC8)c7)n6)CC5)CC4)CC3)c(F)c2)C(=O)N1` (stereo partly drawn) [Compound 605, trans-(1r,4R)-4-(4-(4-((2,6-dioxopiperidin-3-yl)amino)-2-fluorophenyl)piperazin-1-yl)-N-((1r,4R)-4-((5-fluoro-4-(3-morpholinophenyl)pyrimidin-2-yl)amino)cyclohexyl)cyclohexane-1-carboxamide], the DC50 is less than 500 nM.

Staying with this assay, now noted: 24 hours incubation, MOLT-4, top concentration 10 micromolar; read-out: HiBIT-degradation MOLT4 PIP4k2C 24 hours DC50.
On to `O=C1CCC(Nc2ccc(N3CCC(CN4CCC(NC(=O)[C@H]5CC[C@H](Nc6ncc(F)c(-c7cccc(-n8ccccc8=O)c7)n6)CC5)CC4)CC3)c(F)c2)C(=O)N1` (relative stereo) [Compound 375, trans-N-(1-((1-(4-((2,6-dioxopiperidin-3-yl)amino)-2-fluorophenyl)piperidin-4-yl)methyl)piperidin-4-yl)-4-((5-fluoro-4-(3-(2-oxopyridin-1(2H)-yl)phenyl)pyrimidin-2-yl)amino)cyclohexane-1-carboxamide], for which the DC50 is less than 500 nM.

On to `O=C1CCC(Nc2ccc(N3CCC(N4CCC(CNC(=O)[C@H]5CCC[C@@H](Nc6ncc(F)c(-c7cccc(-n8ccccc8=O)c7)n6)C5)CC4)CC3)cc2)C(=O)N1` (relative stereo) [Compound 297, cis-N-((1′-(4-((2,6-dioxopiperidin-3-yl)amino)phenyl)-[1,4′-bipiperidin]-4-yl)methyl)-3-((5-fluoro-4-(3-(2-oxopyridin-1(2H)-yl)phenyl)pyrimidin-2-yl)amino)cyclohexane-1-carboxamide], for which the DC50 was less than 500 nM.

With `O=C1CCC(n2c(=O)oc3cc(N4CCN(CC5CCN(CC(=O)N[C@H]6CC[C@H](Nc7ncc(F)c(-c8cccc(-n9ccccc9=O)c8)n7)CC6)CC5)CC4)ccc32)C(=O)N1` (stereo partly drawn) [Compound 339, trans-2-(4-((4-(3-(2,6-dioxopiperidin-3-yl)-2-oxo-2,3-dihydrobenzo[d]oxazol-6-yl)piperazin-1-yl)methyl)piperidin-1-yl)-N-(4-((5-fluoro-4-(3-(2-oxopyridin-1(2H)-yl)phenyl)pyrimidin-2-yl)amino)cyclohexyl)acetamide], the DC50 was less than 500 nM.

Turning to `O=C1CCC(N2Cc3cc(C4CCN(CCN5CCN(C(=O)[C@H]6CCC[C@@H](Nc7ncc(Cl)c(-c8cccc(-c9ccccc9)c8)n7)C6)CC5)CC4)ccc3C2=O)C(=O)N1` (relative stereo) [Compound 61, cis-3-(5-(1-(2-(4-(3-((4-([1,1′-biphenyl]-3-yl)-5-chloropyrimidin-2-yl)amino)cyclohexane-1-carbonyl)piperazin-1-yl)ethyl)piperidin-4-yl)-1-oxoisoindolin-2-yl)piperidine-2,6-dione], the DC50 was less than 500 nM.
